Laboratory results taken from patent publication US4060603A, “Histidine derivatives” (Reckitt & Colman Products Limited, priority 1975, dated 1977).

System: reserpine induced hypothermia
Experiment: reversal of reserpine induced hypothermia test in mice
Format: in vivo

C[C@H]1CCN(C(=O)[C@H](Cc2c[nH]cn2)NC(=O)[C@@H]2CCC(=O)N2)[C@@H]1C(N)=O [Example 1, L-Pyroglutamyl-L-histidyl-trans-3-methyl-L-prolineamide]
calorigenic effect in reversal of reserpine induced hypothermia (fully reserpinised mice, over 4 hours, P < 0.05, Mann Whitney U test): significant
potency relative to TRH (times more potent) (mice, doses 1-30 mg/Kg p.o.): 3-4 time
